Assay: xn = mol fraction of the nth substance listed
Conditions: for speed of sound: 100 kPa, Pulse-echo method; for speed of sound / viscosity / mass density: Liquid; for viscosity / mass density: 101 kPa; for viscosity: Concentric cylinders viscometry; for mass density: Vibrating tube method; for surface tension liquid-gas: 294.7 K, Drop volume

CC(CC(C)(C)C)CC(C)(C)CC(C)(C)C (stereo not given) [2,2,4,4,6,8,8-heptamethylnonane] + CCCCCCCCCCCC
Conditions | mass density [kg/m3] | speed of sound [m/s] | viscosity [mPa·s]
293.15 K, x1 = 0.103 | 753.263 | 1295.6 | 1.59
293.15 K, x1 = 0.1677 | 756.137 | 1294.1 | 1.67
293.15 K, x1 = 0.2944 | 761.09 | 1292 | 1.84
293.15 K, x1 = 0.4191 | 765.497 | 1290.5 | 2.03
293.15 K, x1 = 0.5011 | 768.604 | 1289.5 | 2.19
293.15 K, x1 = 0.5955 | 771.819 | 1288.5 | 2.4
293.15 K, x1 = 0.7585 | 777.128 | 1287.2 | 2.83
293.15 K, x1 = 0.8985 | 781.527 | 1286.3 | 3.29
293.15 K, x1 = 1 | 784.457 | 1285.7 | 3.7
303.15 K, x1 = 0.103 | 746.092 | 1257.5 | 1.32
303.15 K, x1 = 0.1677 | 749.065 | 1256.2 | 1.39
303.15 K, x1 = 0.2944 | 754.068 | 1254.3 | 1.53
303.15 K, x1 = 0.4191 | 758.54 | 1252.9 | 1.67
303.15 K, x1 = 0.5011 | 761.702 | 1252 | 1.8
303.15 K, x1 = 0.5955 | 764.964 | 1251 | 1.95
303.15 K, x1 = 0.7585 | 770.346 | 1249.8 | 2.28
303.15 K, x1 = 0.8985 | 774.79 | 1248.9 | 2.62
303.15 K, x1 = 1 | 777.761 | 1248.5 | 2.92
313.15 K, x1 = 0.103 | 738.895 | 1219.8 | 1.12
313.15 K, x1 = 0.1677 | 741.921 | 1218.7 | 1.17
313.15 K, x1 = 0.2944 | 747.011 | 1217 | 1.28
313.15 K, x1 = 0.4191 | 751.556 | 1215.7 | 1.4
313.15 K, x1 = 0.5011 | 754.77 | 1214.9 | 1.5
313.15 K, x1 = 0.5955 | 758.085 | 1214.1 | 1.63
313.15 K, x1 = 0.7585 | 763.538 | 1213 | 1.88
313.15 K, x1 = 0.8985 | 768.028 | 1212.2 | 2.14
313.15 K, x1 = 1 | 771.044 | 1211.8 | 2.37
323.15 K, x1 = 0.103 | 731.669 | 1182.8 | 0.966
323.15 K, x1 = 0.1677 | 734.749 | 1181.8 | 1.01
323.15 K, x1 = 0.2944 | 739.926 | 1180.3 | 1.1
323.15 K, x1 = 0.4191 | 744.546 | 1179.2 | 1.19
323.15 K, x1 = 0.5011 | 747.812 | 1178.5 | 1.27
323.15 K, x1 = 0.5955 | 751.18 | 1177.8 | 1.37
323.15 K, x1 = 0.7585 | 756.708 | 1176.8 | 1.57
323.15 K, x1 = 0.8985 | 761.266 | 1176.3 | 1.77
323.15 K, x1 = 1 | 764.316 | 1176 | 1.95
333.15 K, x1 = 0.103 | 724.407 | 1146.3 | 0.84
333.15 K, x1 = 0.1677 | 727.54 | 1145.4 | 0.877
333.15 K, x1 = 0.2944 | 732.805 | 1144.2 | 0.95
333.15 K, x1 = 0.4191 | 737.503 | 1143.3 | 1.03
333.15 K, x1 = 0.5011 | 740.821 | 1142.7 | 1.09
333.15 K, x1 = 0.5955 | 744.244 | 1142.2 | 1.17
333.15 K, x1 = 0.7585 | 749.858 | 1141.4 | 1.33
333.15 K, x1 = 0.8985 | 754.484 | 1141 | 1.49
333.15 K, x1 = 1 | 757.571 | 1140.8 | 1.63
343.15 K, x1 = 0.103 | 717.1 | – | 0.738
343.15 K, x1 = 0.1677 | 720.2 | – | 0.769
343.15 K, x1 = 0.2944 | 725.6 | – | 0.83
343.15 K, x1 = 0.4191 | 730.4 | – | 0.895
343.15 K, x1 = 0.5011 | 733.7 | – | 0.949
343.15 K, x1 = 0.5955 | 737.2 | – | 1.01
343.15 K, x1 = 0.7585 | 743 | – | 1.14
343.15 K, x1 = 0.8985 | 747.6 | – | 1.27
343.15 K, x1 = 1 | 750.7 | – | 1.39
353.15 K, x1 = 0.103 | 709.6 | – | 0.654
353.15 K, x1 = 0.1677 | 712.7 | – | 0.681
353.15 K, x1 = 0.2944 | 718.2 | – | 0.732
353.15 K, x1 = 0.4191 | 723.1 | – | 0.787
353.15 K, x1 = 0.5011 | 726.5 | – | 0.832
353.15 K, x1 = 0.5955 | 730.1 | – | 0.885
353.15 K, x1 = 0.7585 | 736 | – | 0.994
353.15 K, x1 = 0.8985 | 740.7 | – | 1.1
353.15 K, x1 = 1 | 743.8 | – | 1.19
363.15 K, x1 = 0.103 | 702 | – | 0.585
363.15 K, x1 = 0.1677 | 705.3 | – | 0.608
363.15 K, x1 = 0.2944 | 710.8 | – | 0.652
363.15 K, x1 = 0.4191 | 715.8 | – | 0.698
363.15 K, x1 = 0.5011 | 719.2 | – | 0.737
363.15 K, x1 = 0.5955 | 722.9 | – | 0.782
363.15 K, x1 = 0.7585 | 728.9 | – | 0.873
363.15 K, x1 = 0.8985 | 733.6 | – | 0.963
363.15 K, x1 = 1 | 736.8 | – | 1.04
373.15 K, x1 = 0.103 | 694.5 | – | 0.528
373.15 K, x1 = 0.1677 | 697.8 | – | 0.548
373.15 K, x1 = 0.2944 | 703.5 | – | 0.586
373.15 K, x1 = 0.4191 | 708.5 | – | 0.626
373.15 K, x1 = 0.5011 | 712 | – | 0.659
373.15 K, x1 = 0.5955 | 715.8 | – | 0.697
373.15 K, x1 = 0.7585 | 721.8 | – | 0.775
373.15 K, x1 = 0.8985 | 726.6 | – | 0.85
373.15 K, x1 = 1 | 729.9 | – | 0.914

Conditions | surface tension liquid-gas [mN/m]
x1 = 0.1677 | 24.8
x1 = 0.2944 | 24.9
x1 = 0.4191 | 24.6
x1 = 0.5011 | 24.6
x1 = 0.5955 | 24.3
x1 = 0.7585 | 24.2
x1 = 0.8985 | 24.2
x1 = 1 | 24
